Source: US20140170158A1, “COMPOSITIONS AND METHODS FOR TREATING OR PREVENTING LUNG DISEASES” (THE JOHNS HOPKINS UNIVERSITY, priority 2012, published 2014)
Entries after “also recorded” stand apart in the source; their conditions may differ.

What was measured:
active TGF-β = experiment: ELISA of active TGF-β in lung lysates of CS-exposed mice; type: in vivo; conditions: AKR/J and C57BL/6 mice, two weeks of CS exposure, concurrent treatment
Procedure: (§1) Six- to eight-week-old AKR/J male mice were divided into 3 groups. The control group was kept in a filtered air environment, and the experimental groups were subjected to CS or CS plus losartan in drinking water. CS exposure was carried out (2 hours per day, 5 days per week) by burning 2R4F reference cigarettes (University of Kentucky, […], Ky., USA) using a smoking machine (Model TE-10; Teague Enterprises) for 6 to 7 weeks. The average concentration of total suspended particulates and carbon monoxide was 90 mg/m and 350 ppm, respectively, which was monitored on a routine basis.
(§2) The AT1 selective antagonist losartan (Merck Co.) was diluted into drinking water at concentrations of 3 mg/kg (low dose) and 30 mg/kg (high dose). Panselective TGF-β-neutralizing antibody (R&D Systems) was administered by intraperitoneal injection according to published protocol (70). Isotype-matched control antibody (R&D Systems) was administered to control mice as described above.

MMP12 = experiment: Western blot analysis of MMP12 expression in lung lysates; type: in vivo; conditions: CS-exposed mice
Procedure: as §1, §2
(§3) Whole lung lysates were extracted in M-Per buffer from Pierce. Protein concentrations were determined using the Bio-Rad Protein Assay. Aliquots of 30-50 μg protein were boiled and then loaded onto Tris-HCL gels and transferred electrophoretically to nitrocellulose membranes. Membranes were incubated with the primary antibody for 1 hour at room temperature. Detection was performed by the Pierce West Dura ECL Detection System. […]

[1] = test system: small airways of chronic CS-exposed mice; experiment: Airway histology: wall thickness, Ki67, trichrome, αSMA; type: in vivo
Procedure: Six- to eight-week-old AKR/J male mice were divided into 3 groups. The control group was kept in a filtered air environment, and the experimental groups were subjected to CS or CS plus losartan in drinking water. […] The average concentration of total suspended particulates and carbon monoxide was 90 mg/m and 350 ppm, respectively, which was monitored on a routine basis.
as §2
Mean linear intercept measurements were performed on H&E-stained sections taken at intervals throughout both lungs. Slides were coded, captured by an observer, and masked for identity for the groups. Ten to fifteen images per slide were acquired at ×20 magnification and transferred to a computer screen. Mean chord lengths and mean linear intercepts were assessed by automated morphometry with a macro-operation performed by Metamorph Imaging Software (Universal Imaging, Molecular Devices). Mean airway thickness was measured directly using microscope-captured images at ×40 magnification. Hart's staining was performed per published protocol using either van Gieson or tartrazine counterstaining (71).
Tissue sections were deparaffinized and rehydrated in an ethanol series. Sections were blocked for non-specific binding with 3% normal serum from chicken and incubated with the primary antibodies for 1 hour at room temperature. For immunofluorescence, sections were then incubated with secondary antibodies at 1:200 for 30 minutes at room temperature (Molecular Probes). Sections were counterstained with 4′,6′-diamidinio-2-phenylindole (DAPI) and mounted with Vectashield hard set mounting medium (Vector Labs). Briefly, after incubation with the primary antibody overnight at 4° C., slides were washed with PBST, incubated with an appropriate biotinylated secondary antibody (Jackson ImmunoResearch Inc.), and developed by using ABC and DAB detection reagents (Vector Laboratories). Antibodies were used at the following concentrations: Ki67 (1:50; Santa Cruz Biotechnology Inc.), nitrotyrosine (Abcam), Mac3 (BD Biosciences), CD45R (Santa Cruz Biotechnology Inc.), psmad2 (Cell Signaling Technology), TUNEL (1:25; Abcam), JNK/pJNK (Cell Signaling Technology), Akt/pAkt (Cell Signaling Technology), LAP— TGF-β1 (R&D Systems), CTGF (Abcam), Angiotensin type 1 receptor (Santa Cruz Biotechnology Inc.), and active caspase-3 (Abcam).

CS-exposed lungs = experiment: CS-induced injury measures by immunohistochemistry: oxidative stress, inflammatory cells, proliferation; type: in vivo, mice
Procedure: as §1, §2
Tissue sections were deparaffinized and rehydrated in an ethanol series. Sections were blocked for non-specific binding with 3% normal serum from chicken and incubated with the primary antibodies for 1 hour at room temperature. For immunofluorescence, sections were then incubated with secondary antibodies at 1:200 for 30 minutes at room temperature (Molecular Probes). Sections were counterstained with 4′,6′-diamidinio-2-phenylindole (DAPI) and mounted with Vectashield hard set mounting medium (Vector Labs). Briefly, after incubation with the primary antibody overnight at 4° C., slides were washed with PBST, incubated with an appropriate biotinylated secondary antibody (Jackson ImmunoResearch Inc.), and developed by using ABC and DAB detection reagents (Vector Laboratories). […]

Akt, JNK, p38 = experiment: Immunoblotting of activated and total Akt, JNK and p38 in lung lysates; type: in vivo, mice; conditions: CS-exposed lungs, attenuated by CS
Procedure: as §1, §2, §3

[2] = test system: chronic CS-exposed AKR/J mice; experiment: Morphometric analysis of airspace dimension and airway attachments in chronic CS-induced emphysema model; type: in vivo
Procedure: as §1, with “The control group was kept in a filtered air environment, and the experimental groups were subjected to CS or CS plus losartan in drinking water.” left out
[…] Panselective TGF-β-neutralizing antibody (R&D Systems) was administered by intraperitoneal injection according to published protocol (70). Isotype-matched control antibody (R&D Systems) was administered to control mice as described above.
Three to five mice of each genotype were studied at the noted ages. For histologic and morphometric analyses, mouse lungs were inflated at a pressure of 25 cm H2O and fixed with 4% PFA in low molecular weight agarose. […]
Mean linear intercept measurements were performed on H&E-stained sections taken at intervals throughout both lungs. […] Mean chord lengths and mean linear intercepts were assessed by automated morphometry with a macro-operation performed by Metamorph Imaging Software (Universal Imaging, Molecular Devices). Mean airway thickness was measured directly using microscope-captured images at ×40 magnification. […]

[3] = Body weight of CS- or RA-exposed mice; type: in vivo; conditions: for CS-induced weight loss: CS-exposed mice, two months treatment
Procedure: as §1, §2

MMP9 = experiment: Zymography of lung extracts; type: in vivo; conditions: CS-exposed mice
Procedure: as §1, §2

AT1 receptor = molecular target: T1, AT1 receptor (Mus musculus, UniProt P29754); experiment: Immunohistochemistry for the AT1 receptor in murine lungs; type: in vivo, mice; conditions: 2 months CS
T1 construct: from tissue; host or cells: fixed lung sections of AKR/J mice
T1 sequence (P29754 1-359): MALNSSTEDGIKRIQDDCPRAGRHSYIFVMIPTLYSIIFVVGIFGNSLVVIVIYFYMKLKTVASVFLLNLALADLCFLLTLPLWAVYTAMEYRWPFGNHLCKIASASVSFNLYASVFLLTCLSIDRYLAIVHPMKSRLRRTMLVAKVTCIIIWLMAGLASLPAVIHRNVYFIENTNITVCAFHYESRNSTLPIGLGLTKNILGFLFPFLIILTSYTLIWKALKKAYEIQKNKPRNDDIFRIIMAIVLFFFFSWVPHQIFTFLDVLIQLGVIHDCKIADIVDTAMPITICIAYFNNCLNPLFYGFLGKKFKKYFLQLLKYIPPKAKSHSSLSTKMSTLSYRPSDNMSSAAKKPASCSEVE
Procedure: as §1, §2

[4] = test system: alveolar epithelial apoptosis; experiment: TUNEL and active caspase-3 labeling in the airspace; type: in vivo; conditions: CS-exposed mice
Procedure: as §1, §2
(§4) Tissue sections were deparaffinized and rehydrated in an ethanol series. Sections were blocked for non-specific binding with 3% normal serum from chicken and incubated with the primary antibodies for 1 hour at room temperature. For immunofluorescence, sections were then incubated with secondary antibodies at 1:200 for 30 minutes at room temperature (Molecular Probes). […]

[5] = test system: lung gene expression pathways; experiment: Expression profile analysis of whole lung RNA; type: in vivo, mice; conditions: 2 months CS plus losartan
Procedure: Six- to eight-week-old AKR/J male mice were divided into 3 groups. The control group was kept in a filtered air environment, and the experimental groups were subjected to CS or CS plus losartan in drinking water. CS exposure was carried out (2 hours per day, 5 days per week) by burning 2R4F reference cigarettes (University of Kentucky, […], Ky., USA) using a smoking machine (Model TE-10; Teague Enterprises) for 6 to 7 weeks. […] Panselective TGF-β-neutralizing antibody (R&D Systems) was administered by intraperitoneal injection according to published protocol (70). Isotype-matched control antibody (R&D Systems) was administered to control mice as described above. Total RNA was extracted from the designated murine lungs, six in each treatment group, using the Trizol Reagent method (Invitrogen, Carlsbad, Calif. 92008, cat. no. 15596-026). Additional purification was performed on RNAeasy columns (Qiagen, Valencia, Calif. 913555, cat. no. 74104). The quality of total RNA samples was assessed using an Agilent 2100 Bioanalyzer (Agilent Technologies, Palo Alto, Calif.). The six RNA samples from each time point were pooled into two groups comprised of three murine specimens. […] The hybridized biotinylated cRNA was detected with streptavidin-Cy3 and quantitated using Illumina's BeadStation 500GX Genetic Analysis Systems scanner. […]

elastin = experiment: Elastin localization by Hart's stain; type: in vivo; conditions: CS-exposed mice
Procedure: as §1, §2

TGF-β signaling (psmad2) = experiment: Immunohistochemical staining for psmad2, a marker of TGF-β signaling, in lungs; type: in vivo; conditions: chronic CS-exposed mice
Procedure: as §1, §2, §4

[6] = test system: chronic CS-exposed AKR/J mice; experiment: Measurement of mouse lung mechanics; type: in vivo
Procedure: as §1
as §2, with “above. […]” for “above.”
After being connected they were paralyzed with Succinylcholine (75 mg/kg) and ventilated with a tidal volume of 0.2 mL of 100% oxygen at a rate of 150 breathes/min, with a positive end expiratory pressure (PEEP) of 3 cm H2O. […] One minute later Rrs and Ers were measured (74). […] The expression levels of target genes were determined in triplicate from the standard curve and normalized to Gapdh mRNA level.

## CCCCc1nc(Cl)c(CO)n1Cc1ccc(-c2ccccc2-c2nn[nH]n2)cc1 [losartan]
Active TGF-β
  active TGF-β in lung lysates by ELISA: normalized TGF-β in both strains
MMP12
  MMP12 expression in the lungs: normalized
[1]; 2 months CS, small airways of similar size
  airway epithelial thickening (airway mucosal thickness): normalized
[1]; CS-exposed mice
  airway epithelial proliferation (Ki67 staining): trend toward reduction
[1]; data not shown
  density and abundance of αSMA-producing smooth muscle cells surrounding the small airways: not changed
[1]; mice exposed to 3 months of CS
  peribronchiolar collagen deposition (trichrome): normalized collagen deposition
CS-exposed lungs; AKR/J mice, CS-exposed lungs
  inflammatory cell infiltration (alveolar macrophage and lymphocyte numbers): reduced inflammatory cell infiltration
  oxidative stress (nitrotyrosine and 8-deoxyguanine immunostaining): normalized oxidative stress
CS-exposed lungs; CS-exposed mice
  airspace epithelial cell proliferation reduced by CS: did not normalize
Akt, JNK, p38
  JNK and p38 activation: only Akt activation was normalized
[2]; 2 months CS, concurrent treatment (losartan 0.6 or 1.2 g/l in drinking water; antibody 10 mg/kg/wk)
  airspace dimension (mean linear intercept): marked reduction in the airspace dimension; also recorded: attenuate destructive airspace enlargement
[2]; CS-exposed
  airway alveolar attachments, a measure of airspace destruction: recovery with losartan treatment
[3]
  CS-induced weight loss: not improved
[3]; listed as Losartan
  CS-induced weight loss: does not rescue CS-induced weight loss
[3]; room air-exposed mice
  body weight of RA-exposed mice: did not alter body weight
MMP9
  MMP9 activation: normalized
AT1 receptor
  AT1 staining in the airspace walls: normalized
[4]
  TUNEL labeling in the airspace: attenuated
  active caspase-3 labeling in the airspace: attenuated
[5]
  oxidoreductase, B cell receptor signaling, chemokine signaling, and cytokine receptor interaction pathways (induced with CS): repressed with losartan treatment
  stress response and MAPK pathway genes (downregulated with CS): induced with losartan treatment
elastin
  elastin fragmentation in the airspaces: improved with losartan treatment
TGF-β signaling (psmad2)
  TGF-β signaling (phosphorylated smad2 in alveolar and airway epithelium): normalized with losartan treatment; also recorded: inhibit chronic CS-induced TGF-β signaling in the lung
[6]
  lung elastance: normalized
  lung size (total lung capacity): normalized
